Test results taken from patent US20260224566A1, “Obicetrapib and Ezetimibe Combination Treatment and Fixed Dose Pharmaceutical Compositions” (NewAmsterdam Pharma B.V., priority 2023, published 2026).
Where a name gives a salt, the structure may show the parent alone.

Columns and labels:
[1] = Stability study at 70° C./75% RH, open vial (physical stability by XRPD, chemical purity by HPLC); format: physicochemical; settings: 75% relative humidity
Source text: FIG. 54 is a plot of x-ray powder diffraction pattern taken of crystalline obicetrapib hemicalcium, and FIG. 55 is a plot of x-ray powder diffraction patterns taken of crystalline obicetrapib hemicalcium under stress conditions. In FIG. 55, there are four diffraction patterns shown based on stability study set forth in Example 11.27. Pattern 1 is an x-ray powder diffraction pattern of a sample of amorphous obicetrapib hemicalcium. Pattern 2 is the x-ray powder diffraction pattern of a sample of crystalline obicetrapib hemicalcium. In pattern 3, the sample of crystalline obicetrapib hemicalcium was exposed to 70° C. at 75% relative humidity for one day. […] Pattern 1 was taken before the sample was placed on stability.
Stability study was conducted on crystalline and amorphous forms of obicetrapib at 70° C./75% relative humidity (RH). The solids were placed into a 4.0 ml glass vial without caps (open condition) and stored at 70° C./75% RH. […] The solids were analyzed by XRPD for physical stability and by HPLC for chemical purity. The sample collected at each time point was dissolved in methanol before HPLC analysis. In order to minimize the effect of potential analyte adsorption on the filter, the initial 0.5 mL of supernatant passing through the filter was discarded prior to collecting sample for HPLC analysis. Purity for each sample was determined based on peak area percent and compared to the sample at T=0.

[2] = test system: ApoE*3-Leiden.CETP transgenic mice; assay: Example 12: plasma lipids, VLDL clearance, LDL receptor, fecal and biliary sterols in ApoE*3-Leiden.CETP mice; format: in vivo, mouse
Source text: Obicetrapib is a selective cholesteryl ester transfer protein (CETP) inhibitor currently in clinical development for the treatment of hypercholesterolemia and reduction of cardiovascular risk that strongly reduces Apolipoprotein B (ApoB) and low-density lipoprotein cholesterol (LDL-C) and concomitantly increases plasma high-density lipoprotein cholesterol (HDL-C). Ezetimibe reduces absorption of biliary and dietary cholesterol from the small intestine, thereby reducing LDL-C levels. The current study was carried out to elucidate the mechanism of action responsible for the observed decrease in non-HDL-C by obicetrapib monotherapy and in combination with ezetimibe in a translational mouse model for hyperlipidemia and atherosclerosis.
(§1) The experimental protocol is illustrated in FIG. 71, with time (t) measured in weeks. Female ApoE*3-Leiden.CETP transgenic mice were fed a Western diet with 0.05% w/w cholesterol (equivalent to daily human intake) with (i) no drug (control), or the same diet containing (ii) obicetrapib alone (2 mg/kg/day), (iii) ezetimibe alone (1 mg/kg/day) or (iv) the combination of obicetrapib and ezetimibe. In the experiment, the effects of the treatments on, amongst other things, plasma blood lipids and fecal bile acids and sterols were determined.

[3] = test system: participants currently receiving high-intensity statin therapy; assay: ROSE2 Phase 2b clinical trial: LDL-C and other lipid efficacy endpoints; format: in vivo, human; settings: ROSE2; ezetimibe 10 mg on top of obicetrapib 10 mg
Protocol: The primary objective of this study is to evaluate the effect of obicetrapib 10 mg+ezetimibe 10 mg combination therapy compared with placebo, when used as an adjunct to high-intensity statin therapy, on LDL-C at Day 84.
The secondary objectives of this study include the following, in hierarchical order: • To evaluate the effect of obicetrapib 10 mg monotherapy compared with placebo, when used as an adjunct to high-intensity statin therapy, on LDL-C at Day 84; • To evaluate the effect of obicetrapib 10 mg+ezetimibe 10 mg combination therapy compared with placebo, when used as an adjunct to high-intensity statin therapy, on ApoB at Day 84; and • To evaluate the effect of obicetrapib 10 mg monotherapy compared with placebo, when used as an adjunct to high-intensity statin therapy, on ApoB at Day 84.
This study will be a placebo-controlled, double-blind, randomized, Phase 2 study to evaluate the efficacy, safety, and tolerability of obicetrapib 10 mg, both in combination with ezetimibe 10 mg and as monotherapy, as an adjunct to high-intensity statin therapy. This study will take place at approximately 20 sites in the United States.
Up to 2 weeks after the Screening Visit, participants will return to the site on Day 1 (Visit 2) and confirm study eligibility before being randomized and beginning treatment. Approximately 114 eligible participants (38 participants per treatment group) will be randomized in a 1:1:1 ratio to 1 of the following treatment groups: • Combination therapy: Obicetrapib 10 mg+ezetimibe 10 mg (administered as one 10 mg obicetrapib tablet and one 10 mg ezetimibe capsule); • Obicetrapib monotherapy: Obicetrapib 10 mg (administered as one 10 mg obicetrapib tablet and 1 placebo capsule); or. • Placebo (administered as 1 placebo tablet and 1 placebo capsule).
During the 12-week Treatment Period, the assigned study drugs will be administered by the participants orally with water, once daily on Day 1 to Day 84 at approximately the same time each morning. Participants will return to the site on Day 28 (±2 days), Day 84 (±2 days), and Day 112 (±2 days) for efficacy, safety, and pharmacokinetic (PK) assessments. Participants, Investigators, the Clinical Research Organization (CRO), and the Sponsor will be blinded to all lipid results from Day 1 (Visit 2) for the first participant until all enrolled participants complete the Day 84 (End of Treatment) visit or are withdrawn from the study, in order to protect blinding to treatment assignment.
The primary efficacy endpoint is the percent change from Day 1 to Day 84 in LDL-C for the obicetrapib 10 mg+ezetimibe 10 mg combination treatment group compared with the placebo group.
The secondary efficacy endpoints include the following, in hierarchical order: • Percent change from Day 1 to Day 84 in LDL-C for the obicetrapib 10 mg monotherapy. • treatment group compared with the placebo group; • Percent change from Day 1 to Day 84 in ApoB for the obicetrapib 10 mg+ezetimibe 10 mg • combination treatment group compared with the placebo group; and • Percent change from Day 1 to Day 84 in ApoB for the obicetrapib 10 mg monotherapy treatment group compared with the placebo group.
The exploratory efficacy endpoints include the following: • Percent change from Day 1 to Day 84 in non-HDL-C, VLDL-C, HDL-C, TG, ApoE, Lp(a), and HDL-ApoE for the obicetrapib 10 mg+ezetimibe 10 mg combination treatment group compared with the placebo group and for the obicetrapib 10 mg monotherapy treatment group compared with the placebo group; and • Proportion of participants at Day 84 that achieve LDL-C <2.6 mmol/L (<100 mg/dL), LDL-C <1.8 mmol/L (<70 mg/dL), and LDL-C <1.3 mmol/L (<50 mg/dL) for the obicetrapib 10 mg+ezetimibe 10 mg combination treatment group compared with the placebo group and for the obicetrapib 10 mg monotherapy treatment group compared with the placebo group. […]

[4] = test system: ApoE*3-Leiden.CETP transgenic mice; assay: Example 13: plasma cholesterol and atherosclerosis development in aortic root of ApoE*3-Leiden.CETP mice; format: in vivo, mouse
Protocol: The current study was carried out to evaluate the effect of obicetrapib monotherapy and a combination of obicetrapib+ezetimibe on atherosclerosis development in a translational mouse model for hyperlipidemia and atherosclerosis.
as §1, with “82,” for “71,”, “(on average 0.6” for “(1”, “ezetimibe.” for “ezetimibe. In the experiment, the effects of the treatments on, amongst other things, plasma blood lipids and fecal bile acids and sterols were determined.”

[5] = cited from earlier work
[6] = test system: patients with hypercholesterolemia; settings: cited from earlier work
[7] = Kinetic solubility in FaSSIF (pH 6.5) at 37° C.; format: physicochemical; settings: as obicetrapib free acid
Source text: (§2) The amorphous form has a higher kinetic solubility and dissolution rate than the crystalline form (and by extension obicetrapib itself). Both crystalline and amorphous obicetrapib hemicalcium kinetic solubility determinations were made in biorelevant media at different pHs, namely at about 5.0 (FeSSIF conditions) and at pH of about 6.5 (FaSSIF) conditions as set forth in Example 11.28.
The concentrations in Table X are those of obicetrapib (i.e., the free acid).
(§3) The solids were magnetically stirred at 600 RPM in a shaker bath and samples were drawn with a 1.0 ml syringe at T=15 mins, 30 mins, 60 mins, 90 mins and 120 mins. The solubility was measured using HPLC method provided by the client. The compound was added to 4.0 ml glass vials at approximately 20.0 mg/ml. Samples were agitated with a vortex mixer for about 5 minutes to ensure the presence of undissolved excess powder. The sample collected at each time point was centrifuged at 1200 RPM, filtered with 0.45 μm Polytetrafluoroethylene (PTFE) filters and diluted with methanol before HPLC analysis. In order to minimize the effect of potential analyte adsorption on the filter, the initial 0.5 mL of supernatant passing through the filter was discarded prior to collecting sample for HPLC analysis.

[8] = Kinetic solubility in FeSSIF (pH 5.0) at 37° C.; format: physicochemical; settings: as obicetrapib free acid
Source text: as §2
The concentrations in Table W are those of obicetrapib (i.e., the free acid).
as §3

[9] = obicetrapib 2 mg/kg/day, ezetimibe 1 mg/kg/day in Western diet
[10] = obicetrapib 2 mg/kg/day, ezetimibe on average 0.6 mg/kg/day in Western diet
[11] = 15 mins, listed as Amorphous obicetrapib hemicalcium Batch #1
[12] = 15 mins, listed as Amorphous obicetrapib hemicalcium Batch #2
[13] = 30 mins, listed as Amorphous obicetrapib hemicalcium Batch #1
[14] = 30 mins, listed as Amorphous obicetrapib hemicalcium Batch #2
[15] = 60 mins, listed as Amorphous obicetrapib hemicalcium Batch #1
[16] = 60 mins, listed as Amorphous obicetrapib hemicalcium Batch #2
[17] = 90 mins, listed as Amorphous obicetrapib hemicalcium Batch #1
[18] = 90 mins, listed as Amorphous obicetrapib hemicalcium Batch #2
[19] = 120 mins, listed as Amorphous obicetrapib hemicalcium Batch #1
[20] = 120 mins, listed as Amorphous obicetrapib hemicalcium Batch #2

With CCOC(=O)N1c2ccc(C(F)(F)F)cc2[C@@H](N(Cc2cc(C(F)(F)F)cc(C(F)(F)F)c2)c2ncc(OCCCC(=O)[O-])cn2)C[C@H]1CC.CCOC(=O)N1c2ccc(C(F)(F)F)cc2[C@@H](N(Cc2cc(C(F)(F)F)cc(C(F)(F)F)c2)c2ncc(OCCCC(=O)[O-])cn2)C[C@H]1CC.[Ca+2] [crystalline obicetrapib hemicalcium, reference compound] the “physical stability by XRPD” value ([1]; 7 days) was “the result remains the same” and the “physical stability by XRPD” value ([1]; one day) was “near total loss of crystallinity”.

In the case of O=C1[C@H](CC[C@H](O)c2ccc(F)cc2)[C@@H](c2ccc(O)cc2)N1c1ccc(F)cc1 [ezetimibe, (3R,4S)-1-(4-fluorophenyl)-3-[(3S)-3-(4-fluorophenyl)-3-hydroxypropyl]-4-(4-hydroxyphenyl)azetidin-2-one], the “biliary bile acids and biliary bile acid flow” value ([2]; not shown) is reported as “did not affect”, the biliary cholesterol flow ([2]; not shown) is reported as “no significant effects” and the biliary cholesterol levels ([2]; not shown) is reported as “decreased”. For the same compound, the “biliary phospholipids and biliary phospholipid flow” value ([2]; not shown) was “did not affect”, the “fecal neutral sterol excretion, change” value [2, 9] was “+68%” and the “half-life of VLDL-like particles, change” value [2, 9] was −23%. The “non-HDL-C levels, change” value [2, 9] was −24%, the “total plasma cholesterol levels, change” value [2, 9] was −23% and the “additional/incremental (median) reduction of LDL-C of ezetimibe added on top of obicetrapib” value [3] was “about 32%”. For the same compound, the HDL-cholesterol ([4]; FIG. 84B) was “no increase”, the “severe lesions (types IV-V), change” value ([4]; aortic root, 28 weeks of treatment) was −31% and the “total atherosclerotic lesion size, change” value ([4]; aortic root, 28 weeks of treatment, versus control) was −50%. The “non-HDL-C levels, change” value [4, 10] was −19%, the “total plasma cholesterol levels, change” value [4, 10] was −19% and the lesion number ([4]; versus control animals, FIG. 90B) was “no reduction”. For the same compound, the solubility in water [5] was “practically insoluble”, the “incremental reduction in LDL-C levels in combination with statins” value ([6]; Catapano et al. 2016) was 15-20% and the “LDL-C reduction typical with ezetimibe mono-therapy” value ([6]; hyperlipidemic patients, Catapano et al. 2016) was 15-22%. The “greater reduction in LDL-C, statin and ezetimibe in combination compared with statin alone” value ([6]; meta-analysis of 27 studies, more than 21,000 patients) was 15.1%.

For CCOC(=O)N1c2ccc(C(F)(F)F)cc2[C@@H](N(Cc2cc(C(F)(F)F)cc(C(F)(F)F)c2)c2ncc(OCCCC(=O)O)cn2)C[C@H]1CC [amorphous obicetrapib hemicalcium, amorphous hemicalcium salt of (2R,4S)-4-{[3,5-bis(trifluoromethyl)benzyl]-[5-(3-carboxypropoxy)pyrimidin-2-yl]amino}-2-ethyl-6-trifluoromethyl-3,4-dihydro-2H-quinoline-1-carboxylic acid ethyl ester], the “Concentration in Solution” value [7, 11] was 60 µg/mL, the “Concentration in Solution” value [7, 12] was 90 µg/mL and the “Concentration in Solution” value [7, 13] was 99 µg/mL. For the same compound, the “Concentration in Solution” value [7, 14] was 140 µg/mL, the “Concentration in Solution” value [7, 15] was 163 µg/mL and the “Concentration in Solution” value [7, 16] was 229 µg/mL. For the same compound, the “Concentration in Solution” value [7, 17] was 201 µg/mL, the “Concentration in Solution” value [7, 18] was 293 µg/mL and the “Concentration in Solution” value [7, 19] was 244 µg/mL. The “Concentration in Solution” value [7, 20] was 387 µg/mL, the “physical stability by XRPD” value ([1]; 7 days) was “remained amorphous” and the “physical stability by XRPD” value ([1]; 14 days) was “remained amorphous”. The “Concentration in Solution” value [8, 11] was 520 µg/mL, the “Concentration in Solution” value [8, 12] was 502 µg/mL and the “Concentration in Solution” value [8, 13] was 661 µg/mL. The “Concentration in Solution” value [8, 14] was 618 µg/mL, the “Concentration in Solution” value [8, 15] was 675 µg/mL and the “Concentration in Solution” value [8, 16] was 628 µg/mL. The “Concentration in Solution” value [8, 17] was 696 µg/mL, the “Concentration in Solution” value [8, 18] was 658 µg/mL and the “Concentration in Solution” value [8, 19] was 675 µg/mL. The “Concentration in Solution” value [8, 20] was 642 µg/mL.
